Tested on: cell viability
Assay: Cellular proliferation assay (percent CTG activity, FIG. 23C)
Format: cell-based
Settings: agent alone, cell line not stated

COCOC[C@H]1C[C@H]2COc3c(Sc4cnc(N5CCC6(CC5)CO[C@@H](C)[C@H]6N)c(CO)n4)ccnc3N2C1 [compound of Formula I]
percent CTG activity (cell viability), single agent: minimal effect on cell viability
